Values quoted from earlier work, collected in US6486349B1, “Amide therapeutics and methods for treating inflammatory bowel disease” (Centaur Pharmaceuticals, Inc., priority 1999, dated 2002).

Tested on: senescence-accelerated mice

CC(C)(C)/[N+]([O-])=C/c1ccccc1 [PBN, α-phenyl-t-butyl nitrone]
increase of the life span: one third
